Consider six compounds from article PMC3019225, “Striatal Pre- and Postsynaptic Profile of Adenosine A2A Receptor Antagonists” (PLoS ONE, 2011).

For orientation: Kd means the equilibrium constant for the complex coming apart.

In assay [1] the test system is rats. Description: Locomotor activity in habituated rats. The format is in vivo, rat. As to conditions: for Locomotor activation: 1 mg/kg i.p.; for Dose producing significant locomotor activation: i.p., 90 min after administration, habituated rats. As to the method:
(§1) Male Sprague-Dawley rats (Charles River Laboratories, Wilmington, MA) weighting between 300–350 g were used in these experiments. Rats were housed 2 per cage and they maintained at a temperature of 22±2°C on a regular 12-h light–dark cycle. Food and water were available ad libitum.
(§2) All drugs but MSX-3 (Sigma-Aldrich, St. Louis, MI) were provided by CHDI Foundation Inc. (Los Angeles, CA, US). SCH-420814 was administered subcutaneously (s.c.) at 1 ml/kg and the other drugs were administered via intraperitonal (i.p.) injection at volume of 2 ml/kg.
Locomotor activity was measured by placing the animals individually in motility soundproof chambers (50×50 centimeters; Med Associates Inc., VT). Locomotion was measured by counting the number of breaks in the infrared beams of the chambers. The animals were placed in individual acrylic chambers at noon on the day of testing. A lamp inside each chamber remained lit during this period. Following 90 min of habituation, the rats were injected i.p. with different doses of each compound or vehicle and locomotor activity was recorded for 90 min after the drug or vehicle administration. All the animals were tested only once. The effect of different doses of the A2AR antagonists on locomotor activity were analyzed using a one-way analysis of variance (ANOVA), followed by Newman-Keuls' post-hoc test.

Assay [2] has as its system striatal glutamate release induced by cortical electrical stimulation. The assay can be described thus: In vivo microdialysis with cortical electrical stimulation. Also noted: species or system rat. As to conditions: 1 mg/kg i.p. As to the method: as §1
Rats were anesthetized with 3 ml/kg of Equithesin (4.44 g of chloral hydrate, 0.972 g of Na pentobarbital, 2.124 g of MgSO4, 44.4 ml of propylene glycol, 12 ml of ethanol and distilled H2O up to 100 ml of final solution; NIDA Pharmacy, Baltimore, MD) and implanted unilaterally with bipolar stainless steel electrodes, 0.15 mm in diameter (Plastics One, Roanoke, VA), into the orofacial area of the lateral agranular motor cortex (3 mm anterior, 3 and 4 mm lateral, and 4.2 mm below bregma). The electrodes and a head holder (connected to a swivel during stimulation) were fixed on the skull with stainless steel screws and dental acrylic resin. […]
The experiments were performed on freely moving rats 24 h after probe implantation. […] Glutamate content was measured by reverse-phase HPLC coupled to a flourimetric detector (Shimadzu Inc., Tokio, Japan). Glutamate values were transformed as percentage of the mean of the three values before the drug or vehicle injection and transformed values were statistically analyzed.

Assay [3] deals with rats. Description: Motor output induced by cortical electrical stimulation (EMG recording, power correlation coefficient PCC). Type of assay: in vivo, rat. As to conditions: for Dose significantly reducing PCC: i.p., PCC 40 min after administration. As to the method: as §1, §2
Rats were anesthetized with 3 ml/kg of Equithesin (4.44 g of chloral hydrate, 0.972 g of Na pentobarbital, 2.124 g of MgSO4, 44.4 ml of propylene glycol, 12 ml of ethanol and distilled H2O up to 100 ml of final solution; NIDA Pharmacy, Baltimore, MD) and implanted unilaterally with bipolar stainless steel electrodes, 0.15 mm in diameter (Plastics One, Roanoke, VA), into the orofacial area of the lateral agranular motor cortex (3 mm anterior, 3 and 4 mm lateral, and 4.2 mm below bregma). The electrodes and a head holder (connected to a swivel during stimulation) were fixed on the skull with stainless steel screws and dental acrylic resin. For the experiments with electromyographic (EMG) recording, electrodes were also implanted in mastication muscles (during the same surgical procedure). Two 5 mm-long incisions were made in the skin on the upper and lower jaw areas to expose the masseter and the lateral pterygoid muscles. […] The bare tips of the electrodes were then held in contact with the masseter and the lateral pterygoid muscles and the skin was closed with surgical staples. The other end of the recording electrodes was encased in a molded plastic pedestal with a round threaded post which was attached to an electrical swivel and then to a differential amplifier (Grass LP511, Grass Instruments, Warwick, RI). The pedestal was secured to the skull with dental cement together with the stimulation electrodes. For the in vivo microdialysis experiments, concentric microdialysis probes with 2-mm long dialysis membranes (Eicom Corp., Tokio, Japan) were implanted respectively into the striatum ipsilateral to the stimulation electrodes (0.0 mm AP, 4.5 ML and 7.0 mm DV).
Rats were placed in individual bowl chambers. Both stimulation electrodes and recording electrodes were attached using flexible shielded cabling to a four channel electrical swivel. Stimulation electrodes were connected to two-coupled constant current isolation units (PSIU6X, Grass Instruments West Warwick, RI) driven by an electrical stimulator (Grass S88X; Grass Instruments). The recording electrodes were connected to a differential amplifier (Grass LP511, West Warwick, RI). This configuration allows the rat to move freely while the stimulation and EMG recordings are taking place. After 60 min of habituation, biphasic current pulse trains (pulse of 0.1 ms at 120–200 µA; 100 Hz, 160 ms trains repeating once per 2 seconds) were delivered. The current intensity was adjusted to the threshold level, defined as the minimal level of current intensity allowing at least 95% of the stimulation pulses to elicit a positive EMG response. Positive EMG response was defined as at least 100% increase of the peak to peak amplitude respect to the background tonic EMG activity lasting more than 100 ms or at least 70% increase in the power of the EMG signal respect to the baseline. Positive EMG responses always matched observable small jaw movements. […]

For assay [4], the target named is T1, A2AR in A2AR-D2R heteromers (Homo sapiens, UniProt P29274). Description: biochemical.
T1 sequence (P29274 whole entry): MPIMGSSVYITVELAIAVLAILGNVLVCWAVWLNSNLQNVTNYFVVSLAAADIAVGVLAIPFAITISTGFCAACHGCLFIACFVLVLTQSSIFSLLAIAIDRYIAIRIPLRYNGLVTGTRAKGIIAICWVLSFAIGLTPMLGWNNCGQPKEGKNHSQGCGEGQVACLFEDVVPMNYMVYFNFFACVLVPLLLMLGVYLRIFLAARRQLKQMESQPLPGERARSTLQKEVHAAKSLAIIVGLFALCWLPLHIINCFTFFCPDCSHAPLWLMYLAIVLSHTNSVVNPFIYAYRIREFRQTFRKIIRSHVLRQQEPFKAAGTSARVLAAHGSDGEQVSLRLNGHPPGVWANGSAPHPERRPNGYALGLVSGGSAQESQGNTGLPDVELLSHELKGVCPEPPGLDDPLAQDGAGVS
T1 sequence (P14416 whole entry partner): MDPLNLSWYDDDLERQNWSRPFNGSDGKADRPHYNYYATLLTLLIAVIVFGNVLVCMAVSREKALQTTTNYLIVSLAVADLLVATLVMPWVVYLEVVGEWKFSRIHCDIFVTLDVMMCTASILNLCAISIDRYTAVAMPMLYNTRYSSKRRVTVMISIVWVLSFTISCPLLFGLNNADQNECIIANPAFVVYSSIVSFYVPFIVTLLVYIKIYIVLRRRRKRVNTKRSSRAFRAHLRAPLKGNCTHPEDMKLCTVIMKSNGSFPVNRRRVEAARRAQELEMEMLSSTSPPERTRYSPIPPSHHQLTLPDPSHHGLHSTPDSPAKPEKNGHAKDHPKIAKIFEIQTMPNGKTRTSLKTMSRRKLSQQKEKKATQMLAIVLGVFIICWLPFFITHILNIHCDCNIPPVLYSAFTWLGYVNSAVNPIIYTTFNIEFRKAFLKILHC
In assay [5] the target is T1, A2AR in A2AR-D2R heteromers. As to conditions: for Reduction of the affinity of A2AR by co-transfection with D2R: A2AR-D2R cells versus A2AR cells; for DCB (dimer cooperativity index): A2AR-D2R cells, A2AR, [^3H]ZM-241385 2 nM.
Assay [6] has as its target T2, A2AR in A1R-A2AR heteromers (Homo sapiens, UniProt P29274). Description: biochemical.
The target in assay [7] is T3, A2AR (Homo sapiens, UniProt P29274). Description: biochemical.
T3 sequence (P29274 whole entry): as the sequence (P29274 whole entry) above
The target in assay [8] is T2, A2AR in A1R-A2AR heteromers. As to conditions: A2AR-A1R cells, [^3H]ZM-241385 2 nM.
In assay [9] the target is T3, A2AR. As to conditions: A2AR cells; [^3H]ZM-241385 2 nM.
The subject of assay [10] is striatal glutamate release induced by cortical electrical stimulation. Also noted: method as in PMID 19936569. As to conditions: intrastriatal perfusion; previous study; ref [5]; cited from earlier work.
Assay [11] deals with A1R in A1R-A2AR heteromers (Homo sapiens, UniProt P30542). As to conditions: A2AR-A1R cells, [^3H]DPCPX 2 nM.
A1R in A1R-A2AR heteromers, sequence (P29274 whole entry): as above
A1R in A1R-A2AR heteromers, sequence (P30542 whole entry): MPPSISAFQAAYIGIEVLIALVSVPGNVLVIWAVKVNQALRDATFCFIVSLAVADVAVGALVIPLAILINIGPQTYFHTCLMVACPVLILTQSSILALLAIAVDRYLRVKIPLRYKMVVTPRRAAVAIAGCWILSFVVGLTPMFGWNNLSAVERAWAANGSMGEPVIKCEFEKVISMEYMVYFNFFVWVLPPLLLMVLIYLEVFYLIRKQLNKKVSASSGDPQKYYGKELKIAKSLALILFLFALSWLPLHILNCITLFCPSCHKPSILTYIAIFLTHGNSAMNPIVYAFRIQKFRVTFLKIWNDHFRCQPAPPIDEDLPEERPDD

Each structure is given as a SMILES string. A value given as a limit tells only on which side of the number the result lay.

T2 sequence (P29274 whole entry): as the sequence (P29274 whole entry) above
T2 sequence (P30542 whole entry partner): as the sequence (P30542 whole entry) above

Regarding `CCn1c(=O)c2c(nc(/C=C/c3ccc(OC)c(OC)c3)n2C)n(CC)c1=O` [KW-6002, (E)-1,3-diethyl-8-(3,4-dimethoxystyryl)-7-methyl-3,7-dihydro-1H-purine-2,6-dione], in the assay on rats [1], the Locomotor activation result is given as “pronounced locomotor activation” and the “Dose producing significant locomotor activation” value is on record as 0.3 mg/kg. Moreover, the “Effect on striatal glutamate release induced by cortical stimulation” value in [2] is given as “did not modify”. Also, the “Reduction of PCC” value in the assay on rats [3] (1 mg/kg i.p.) was “did not reduce PCC”. The “Dose significantly reducing PCC” value in the assay with rats [3] is on record as > 10 mg/kg.

As to `C#CCn1c(=O)c2c(nc(/C=C/c3cccc(OC)c3)n2C)n(CCCO)c1=O` [MSX-2, (E)-3-(3-hydroxypropyl)-8-[2-(3-methoxyphenyl)vinyl]-7-methyl-1-prop-2-ynyl-3,7-dihydropurine-2,6-dione], the equilibrium dissociation constant (Kd) is 7 ± 2 nM in assay [4], 4.2 ± 0.3 nM in [6] and 3.2 ± 0.2 nM on A2AR [7]. Moreover, the “Reduction of the affinity of A2AR by co-transfection with D2R” value in [5] is “two to about nine”. The “DCB (dimer cooperativity index)” value (in assay [5]; in [8]; at A2AR [9]) was 0 throughout.

With `C#CCn1c(=O)c2c(nc(/C=C/c3cccc(OC)c3)n2C)n(CCCOP(=O)(O)O)c1=O.[Na].[Na]` [MSX-3, (E)-phosphoric acid mono-(3-{8-[2-(3-methoxyphenyl)vinyl]-7-methyl-2,6-dioxo-1-prop-2-ynyl-1,2,6,7-tetrahydropurin-3-yl}propyl) ester disodium salt], the “Effect on striatal glutamate release induced by cortical electrical stimulation” value in assay [10] is recorded as “almost completely counteracted”. Further, the “Reduction of PCC” value with rats [3] (dose-response, Fig. 2) is “very effective reduction of PCC”.

As to `C[C@H](Cc1ccccc1)Nc1ncnc2c1ncn2[C@@H]1O[C@H](CO)[C@@H](O)[C@H]1O` [R-PIA], the “B50 (concentration providing half saturation)” value in [11] came to 30 ± 10 nM.

On to `COCCOc1ccc(N2CCN(CCn3ncc4c3nc(N)n3nc(-c5ccco5)nc43)CC2)cc1` [SCH-420814, 2-(2-furanyl)-7-[2-[4-[4-(2-methoxyethoxy)phenyl]-1-piperazinyl]ethyl]-7H-pyrazolo[4,3-e][1], [2], [4]-triazolo[1,5-c]pyrimidin-5-amine], for which the values for the Kd (in [4]; in assay [6]; at A2AR [7]) were 2.7 ± 0.8 nM, 1.1 ± 0.1 nM and 0.5 ± 0.1 nM, respectively. For the same compound, the “Reduction of the affinity of A2AR by co-transfection with D2R” value in assay [5] was “two to about nine”. The “DCB (dimer cooperativity index)” value (in assay [5]; in [8]; at A2AR [9]) was 0 each time.

In the case of `COc1ccc(CCCn2ncc3c2nc(N)n2nc(-c4ccco4)nc32)cc1` [SCH-442416, 2-(2-Furanyl)-7-[3-(4-methoxyphenyl)propyl]-7H-pyrazolo[4,3-e][1], [2], [4]triazolo[1,5-c]pyrimidin-5-amine], in the assay on rats [1], the Locomotor activation result is recorded as “did not induce locomotor activation” and the “Dose producing significant locomotor activation” value is “higher than 3 mg/kg”. Besides, the “Effect on striatal glutamate release induced by cortical stimulation” value in assay [2] was “significantly counteracted”. Further, the “Reduction of PCC” value in the assay with rats [3] (1 mg/kg i.p.) is “strongly reduced PCC”. In the assay on rats [3], the “Dose significantly reducing PCC” value is 0.1 mg/kg.
